Reference: patent publication US5001154A, “Fervescence composition” (K.K. Ueno Seiyaku Oyo Kenkyujo, priority 1987, dated 1991)

Legend:
[1] = fervescence activity by intracerebroventricular injection (rising of body temperature); type: in vivo, Wister male rats; conditions: 400 ng in 3 μl into lateral ventricle, urethane-anesthetized rats, rectal temperature
Method: fervescence activity by intracerebroventricular injection
Wister male rats (8 weeks old) were used as test animals.
Rats were applied to anesthesia by intraperitoneal injection with 1.25 g/kg of urethane and a stainless guide cannula was inserted into the lateral ventricle for administration of a test drug according to Pellegrino's Rat brain atras.
Each test drug was dissolved into an artificial cerebrospinal fluid and 400 ng as drug in 3 μl was injected through the injection cannula for 15 seconds. The artificial cerebrospinal fluid alone was injected as control. Body temperature was measured continuously at the rectum. Rising of body temperature is shown by the rising degree (°C.) from the temperature before administration.

[2] = fervescence activity by intravenous injection (rising of body temperature), 1 mg/kg; type: in vivo, Wister male rats; conditions: 1 mg/kg intravenous, urethane-anesthetized rats
Method: fervescence activity by intravenous injection Test animals were Wister male rats (8 weeks old) weighing 200±10 g. The rats were applied to anesthesia by intraperitoneal injection of 1.25 g/kg of urethane. Each test drug was dissolved into ethyl alcohol. The ethyl alcohol solution was diluted with Ringer's solution at least 50 times just before use and 1 mg/kg of the each test drug was intravenously administered. Body temperature was measured in the same manner as in Example 1. Ringer's solution containing ethyl alcohol was administered as control. Rising of body temperature is shown by the rising degree (°C.) from the temperature before administration.

[3] = fervescence (recovery of body temperature) activity at hemorrhage load; type: in vivo, Wister male rats; conditions: rat loaded with hemorrhage
Method: fervescence (recovery of body temperature) activity at hemorrhage load
Wister male rats (weight: 200 g) were subcutaneously injected on the back with 1.5 g/kg of urethane, subjected to anesthesia. Hemorrhage was then induced by withdrawal of blood by puncture of the heart for the total volume of 3 ml equivalent to 1.5% of the body weight. After kept in a room for 60 minutes, the rats were administered intravenously with test solutions prepared by dissolving test drugs into Ringer's solution so as to administer the rat at a dose of 0.5 or 1 mg/kg, and change of the body temperature was observed. Ringer's solution was administered as control.
In the figures, (1), (2) and (3) correspond to the results of administration of doses 1 mg/kg, 0.5 mg/kg and Ringer's solution alone, respectively.

[4] = sedation activity and rising of body temperature in dog; type: in vivo, hybrid adult dog; conditions: intravenous
From the text: Sedation Activity A 19-methyl type compound having strong fervescence activity was compared with PGE2 […] sedation activity. A hybrid adult dog was held on a holder for dog and intravenously administered with a test drug dissolved in Ringer's solutions at the forefoot. Sedation activity was judged as follows: Sedation Degree 1: Disappearance of body movement 2: Closing of the eyes 3: Leaning on the holding belt

CCCCCC(=O)CC[C@H]1[C@H](O)CC(=O)[C@@H]1CC(=O)CCCCC(=O)OCC [compound 8]
Rising of Body Temperature [1]: +0.4 °C
Rising of Body Temperature [2]: +0.6 °C
Rising of Body Temperature ([3]; 0.5 mg/kg intravenous): +0.7 °C
Rising of Body Temperature ([3]; 1 mg/kg intravenous): +0.8 °C

CCCCC[C@H](O)/C=C/[C@H]1[C@H](O)CC(=O)[C@@H]1C/C=C\CCCC(=O)OC [compound 59]
Rising of Body Temperature [2]: +1.2 °C
Rising of Body Temperature ([4]; 0.01 mg/kg): 0.4 °C

CCCCC(C)C(=O)CC[C@H]1[C@H](O)CC(=O)[C@@H]1C/C=C\CCCC(=O)OCC (stereo partly drawn) [compound 33]
Rising of Body Temperature [2]: +0.9 °C

CCCCCCCC(=O)CC[C@H]1[C@H](O)CC(=O)[C@@H]1C/C=C\CCCC(=O)OCC [compound 54]
Rising of Body Temperature [2]: +0.2 °C

CCCCCC(=O)CC[C@H]1[C@H](O)CC(=O)[C@@H]1CC(=O)CCCCC(=O)OCC (relative stereo) [compound 9]
Rising of Body Temperature [2]: +0.7 °C

CCCCCC(=O)CC[C@H]1[C@H](O)CC(=O)[C@@H]1CCCCC=CC(=O)OC [compound 4]
Rising of Body Temperature [2]: +0.8 °C

CCC[C@H](C)CC(=O)CC[C@H]1[C@H](O)CC(=O)[C@@H]1C/C=C\CCCC(=O)OC [compound 44]
Rising of Body Temperature [2]: +0.2 °C

CCCCCC(=O)CC[C@H]1[C@H](O)CC(=O)[C@@H]1C/C=C\CC(C)CC(=O)OC (stereo partly drawn) [compound 30]
Rising of Body Temperature [2]: +1.7 °C

CCCCCC(=O)CC[C@H]1[C@H](C)CC(=O)[C@@H]1CC(=O)CCCCC(=O)OCC [compound 20]
Rising of Body Temperature [2]: +1.3 °C
Rising of Body Temperature ([3]; 0.5 mg/kg intravenous): +0.5 °C
Rising of Body Temperature ([3]; 1 mg/kg intravenous): +0.8 °C

COC(=O)CCC/C=C\C[C@H]1C(=O)C[C@@H](O)[C@@H]1CCC(=O)CCCCC=C(C)C [compound 52]
Rising of Body Temperature [2]: +0.2 °C

CCCCCC(=O)CC[C@H]1[C@H](O)CC(=O)[C@@H]1CCCCCCC(=O)O [compound 1]
Rising of Body Temperature [1]: +0.4 °C
Rising of Body Temperature [2]: 0 °C

COC(=O)CCCCC(=O)C[C@H]1C(=O)C[C@@H](CO)[C@@H]1CCC(=O)CCCC(C)C [compound 17]
Rising of Body Temperature [2]: +0.4 °C

COC(=O)CCC/C=C\C[C@H]1C(=O)C[C@@H](O)[C@@H]1CCC(=O)CCCC(C)C [compound 45]
Rising of Body Temperature [2]: +2.0 °C
Rising of Body Temperature ([4]; 0.5 mg/kg): 0.5 °C

CCCCCC(=O)CC[C@H]1[C@H](O)CC(=O)[C@@H]1C/C=C\CCCC(=O)OCCO [compound 28]
Rising of Body Temperature [2]: +0.4 °C

CCCCC[C@H](O)/C=C/[C@H]1[C@H](O)CC(=O)[C@@H]1CCCCCCC(=O)O [compound 57]
Rising of Body Temperature [2]: 0 °C

CCCCC(F)C(=O)CC[C@H]1[C@H](O)CC(=O)[C@@H]1C/C=C\CCCC(=O)OCC (stereo partly drawn) [compound 40]
Rising of Body Temperature [2]: +1.4 °C

CCCCCCCC(=O)CC[C@H]1[C@H](C)CC(=O)[C@@H]1C/C=C\CCCC(=O)OC [compound 55]
Rising of Body Temperature [2]: +0.2 °C

CCCCC[C@H](O)/C=C/[C@H]1[C@H](O)CC(=O)[C@@H]1C/C=C\CCCC(=O)O [compound 58]
Rising of Body Temperature [2]: +0.7 °C

CCCCCCCC(=O)CC[C@H]1[C@H](O)CC(=O)[C@@H]1C/C=C\CCCC(=O)OC [compound 53]
Rising of Body Temperature [2]: +0.5 °C

COCCCCCC(=O)CC[C@H]1[C@H](O)CC(=O)[C@@H]1C/C=C\CCCC(=O)OC [compound 47]
Rising of Body Temperature [2]: +0.3 °C

CCCCC(F)C(=O)CC[C@H]1[C@H](C)CC(=O)[C@@H]1C/C=C\CCCC(=O)OCC (stereo partly drawn) [compound 42]
Rising of Body Temperature [2]: +1.4 °C

CCCCC(C)(C)C(=O)CC[C@H]1[C@H](O)CC(=O)[C@@H]1CC(=O)CCCCC(=O)OCC [compound 13]
Rising of Body Temperature [2]: +1.1 °C

CCOC(=O)CCC/C=C\C[C@H]1C(=O)C[C@@H](O)[C@@H]1CCC(=O)CCCC(C)C [compound 46]
Rising of Body Temperature [2]: +0.6 °C

CCCCCCC(=O)CC[C@H]1[C@H](O)CC(=O)[C@@H]1CC(=O)CCCCC(=O)OCC [compound 18]
Rising of Body Temperature [2]: +0.7 °C
Rising of Body Temperature ([3]; 0.5 mg/kg intravenous): +0.4 °C
Rising of Body Temperature ([3]; 1 mg/kg intravenous): +0.8 °C

COCCCCC(C)(C)C(=O)CC[C@H]1[C@H](O)CC(=O)[C@@H]1C/C=C\CCCC(=O)OC [compound 50]
Rising of Body Temperature [2]: +0.2 °C

CCCCC(C)C(=O)CC[C@H]1[C@H](O)CC(=O)[C@@H]1C/C=C\CC(C)CC(=O)OC (stereo partly drawn) [compound 34]
Rising of Body Temperature [2]: +1.0 °C

CCCCCC(=O)CC[C@H]1[C@H](O)CC(=O)[C@@H]1CCCCC=CC(=O)O [compound 3]
Rising of Body Temperature [2]: 0 °C

CCCCCC(F)C(=O)CC[C@H]1[C@H](O)CC(=O)[C@@H]1C/C=C\CCCC(=O)OC (stereo partly drawn) [compound 41]
Rising of Body Temperature [2]: +0.8 °C

CC(C)=CCCCCC(=O)CC[C@H]1[C@H](O)CC(=O)[C@@H]1C/C=C\CCCC(=O)O [compound 51]
Rising of Body Temperature [2]: +0.2 °C

CCCCC(C)C(=O)CC[C@H]1[C@H](O)CC(=O)[C@@H]1C/C=C\CCCC(=O)OC (stereo partly drawn) [compound 32]
Rising of Body Temperature [2]: +1.4 °C

CCCCCC(=O)CC[C@H]1[C@H](O)CC(=O)[C@@H]1C/C=C\CC=CC(=O)OC [compound 29]
Rising of Body Temperature [2]: +1.0 °C

CCCCC(C)C(=O)CC[C@H]1[C@H](O)CC(=O)[C@@H]1CC(=O)CCCCC(=O)OC (stereo partly drawn) [compound 11]
Rising of Body Temperature [2]: +1.5 °C

COCCCCCC(=O)CC[C@H]1[C@H](O)CC(=O)[C@@H]1C/C=C\CC(C)CC(=O)OC (stereo partly drawn) [compound 49]
Rising of Body Temperature [2]: +0.2 °C

CCCCCC(=O)CC[C@H]1[C@H](O)CC(=O)[C@@H]1C/C=C\CCCC(=O)O [compound 22]
Rising of Body Temperature [1]: +0.7 °C
Rising of Body Temperature [2]: 0 °C

CCCCC(F)C(=O)CC[C@H]1[C@H](O)CC(=O)[C@@H]1C/C=C\CCCC(=O)O (stereo partly drawn) [compound 38]
Rising of Body Temperature [2]: +0.3 °C

COCCCCCC(=O)CC[C@H]1[C@H](O)CC(=O)[C@@H]1C/C=C\CC=CC(=O)OC [compound 48]
Rising of Body Temperature [2]: +0.2 °C

CCCCC(C)(C)C(=O)CC[C@H]1[C@H](O)CC(=O)[C@@H]1C/C=C\CCCC(=O)OC [compound 35]
Rising of Body Temperature [2]: +1.0 °C

CCCCCC(=O)CC[C@H]1[C@H](O)CC(=O)[C@@H]1CC(=O)CCCCC(=O)OC [compound 7]
Rising of Body Temperature [1]: +0.6 °C
Rising of Body Temperature [2]: +0.8 °C

CCCCCCCC(=O)CC[C@H]1[C@H](O)CC(=O)[C@@H]1CCCCCCC(=O)OC [compound 5]
Rising of Body Temperature [2]: +0.4 °C

CCCCCC(=O)CC[C@H]1[C@H](O)CC(=O)[C@@H]1C/C=C\CCCC(=O)OCc1ccccc1 [compound 27]
Rising of Body Temperature [2]: +0.3 °C

CCCCC(F)C(=O)/C=C/[C@H]1[C@H](O)CC(=O)[C@@H]1C/C=C\CCCC(=O)OC (stereo partly drawn) [compound 56]
Rising of Body Temperature [2]: +1.0 °C

CCCCC(O)C(=O)CC[C@H]1[C@H](O)CC(=O)[C@@H]1C/C=C\CCCC(=O)OCC (stereo partly drawn) [compound 37]
Rising of Body Temperature [2]: +0.2 °C

CCCCC(C)C(=O)CC[C@H]1[C@H](O)CC(=O)[C@@H]1CC(=O)CCCCC(=O)OCC (stereo partly drawn) [compound 12]
Rising of Body Temperature [2]: +0.9 °C

CCCCC[C@H](O)/C=C/[C@H]1[C@H](O)CC(=O)[C@@H]1C/C=C\CCCC(=O)OC [Test drug 59, PGE2 methyl ester, reference compound]
sedation activity (in words) [4]: clear sedation activity

CCCCC(F)C(=O)CC[C@H]1[C@H](O)CC(=O)[C@@H]1C/C=C\CCCC(=O)OC (stereo partly drawn) [compound 39]
Rising of Body Temperature [2]: +0.9 °C

CCCCC(C)(C)C(=O)CC[C@H]1[C@H](O)CC(=O)[C@@H]1C/C=C\CCCC(=O)OCC [compound 36]
Rising of Body Temperature [2]: +0.6 °C

CCCCCC(=O)CC[C@H]1[C@H](C)CC(=O)[C@@H]1C/C=C\CCCC(=O)OCC [compound 43]
Rising of Body Temperature [2]: +0.2 °C

CCCCCC(=O)CC[C@H]1[C@H](C)CC(=O)[C@@H]1CC(=O)CCCCC(=O)OC [compound 19]
Rising of Body Temperature [2]: +1.0 °C

CCCCCC(=O)CC[C@H]1[C@H](O)CC(=O)[C@@H]1CC(=O)CCCCC(=O)O [compound 6]
Rising of Body Temperature [1]: +0.8 °C
Rising of Body Temperature [2]: 0 °C

CCCCCC(=O)CC[C@H]1[C@H](O)CC(=O)[C@@H]1CC(=O)CCCCC(=O)OCCCC [compound 10]
Rising of Body Temperature [2]: +0.2 °C

CCCCC(F)C(=O)CC[C@H]1[C@H](O)CC(=O)[C@@H]1CC(=O)CCCCC(=O)OCC (stereo partly drawn) [compound 14]
Rising of Body Temperature [2]: +1.0 °C

CCCCCC(=O)CC[C@H]1[C@H](O)CC(=O)[C@@H]1C/C=C\CC(C)CC(=O)OCC (stereo partly drawn) [compound 31]
Rising of Body Temperature [2]: +1.0 °C

CCCCC(F)C(=O)CC[C@H]1[C@H](C)CC(=O)[C@@H]1CC(=O)CCCCC(=O)OCC (stereo partly drawn) [compound 21]
Rising of Body Temperature [2]: +1.1 °C
